Results as given in ChEMBL document CHEMBL1201862, “PubChem BioAssay data set” (2004).
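Method: 48-hour compound exposure of cells in 96-well plates, five concentrations, linear interpolation of endpoints. At the GI50, growth is halved.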 Calls of active or inactive are those of the source. No stated cut-off is given here; in the data, active = GI50 up to about 1.1 µM and inactive = higher.

Assays:
Test in all cases: inhibition of tumour cell growth, NCI panel, 48 h
IGROV-1 = system: IGROV-1
K562 = system: K562
KM12 = system: KM12
LOX IMVI = system: LOX IMVI
M14 = system: M14
Malme-3M = system: Malme-3M
NCI-H226 = system: NCI-H226
NCI-H23 = system: NCI-H23
NCI-H460 = system: NCI-H460
OVCAR-3 = system: OVCAR-3
SF-268 = system: SF-268
SF-295 = system: SF-295
SK-OV-3 = system: SK-OV-3
SN12C = system: SN12C
SW-620 = system: SW-620
TK-10 = system: TK-10
U-251 = system: U-251
SK-MEL-5 = system: SK-MEL-5
RXF 393 = system: RXF 393

SMILES | GI50 (IGROV-1) | GI50 (K562) | GI50 (KM12) | GI50 (LOX IMVI) | GI50 (M14) | GI50 (Malme-3M) | GI50 (NCI-H226) | GI50 (NCI-H23) | GI50 (NCI-H460) | GI50 (OVCAR-3) | GI50 (SF-268) | GI50 (SF-295) | GI50 (SK-OV-3) | GI50 (SN12C) | GI50 (SW-620) | GI50 (TK-10) | GI50 (U-251) | GI50 (SK-MEL-5) | GI50 (RXF 393)
O=C(CCc1cc(-c2ccccc2)nc(S)n1)N(Cc1ccccc1)Cc1ccccc1 | > 100 µM (inactive) | > 100 µM (inactive) | > 100 µM (inactive) | > 100 µM (inactive) | > 100 µM (inactive) | > 100 µM (inactive) | > 100 µM (inactive) | > 100 µM (inactive) | > 100 µM (inactive) | > 100 µM (inactive) | > 100 µM (inactive) | > 100 µM (inactive) | > 100 µM (inactive) | > 100 µM (inactive) | > 100 µM (inactive) | > 100 µM (inactive) | > 100 µM (inactive) | – | –
O/N=C\C(=N/O)Nc1ccc(Cc2ccc(NC(/C=N\O)=N/O)cc2)cc1 | 34.4 µM (inactive) | 37.9 µM (inactive) | 54 µM (inactive) | 40.6 µM (inactive) | 27.5 µM (inactive) | 24.7 µM (inactive) | 18.1 µM (inactive) | 55.5 µM (inactive) | 34.8 µM (inactive) | 42.3 µM (inactive) | > 100 µM (inactive) | 21.7 µM (inactive) | 33.2 µM (inactive) | 35.3 µM (inactive) | 52.1 µM (inactive) | 45.2 µM (inactive) | 37.5 µM (inactive) | 48.3 µM (inactive) | –
COC(=O)/C(=N/Nc1cccc(Cl)c1)C(C(=O)C(=O)Nc1cccc(Cl)c1C)c1nc2ccccc2nc1C (configuration not stated) | 41.7 µM (inactive) | 32.2 µM (inactive) | 80.7 µM (inactive) | – | 53.5 µM (inactive) | 55 µM (inactive) | – | > 100 µM (inactive) | 48.8 µM (inactive) | > 100 µM (inactive) | > 100 µM (inactive) | > 100 µM (inactive) | > 100 µM (inactive) | 60.7 µM (inactive) | > 100 µM (inactive) | > 100 µM (inactive) | – | 36 µM (inactive) | > 100 µM (inactive)
COC1CC(OS(=O)(=O)c2ccc([N+](=O)[O-])cc2)C(OC(=O)c2ccccc2)C(C)O1 (configuration not stated) | > 100 µM (inactive) | > 100 µM (inactive) | > 100 µM (inactive) | > 100 µM (inactive) | > 100 µM (inactive) | > 100 µM (inactive) | – | > 100 µM (inactive) | > 100 µM (inactive) | > 100 µM (inactive) | 82.2 µM (inactive) | > 100 µM (inactive) | – | > 100 µM (inactive) | > 100 µM (inactive) | > 100 µM (inactive) | > 100 µM (inactive) | > 100 µM (inactive) | 39.1 µM (inactive)
NCCn1ccc(NC(c2ccccc2)(c2ccccc2)c2ccccc2)nc1=O | 40.7 µM (inactive) | 20.1 µM (inactive) | 21.7 µM (inactive) | 16.4 µM (inactive) | – | 18.6 µM (inactive) | 15.8 µM (inactive) | > 10 µM (inactive) | 20.3 µM (inactive) | 25.8 µM (inactive) | 16.3 µM (inactive) | 19.8 µM (inactive) | – | 20.3 µM (inactive) | 19.1 µM (inactive) | 30 µM (inactive) | 20.7 µM (inactive) | – | 4.08 µM (inactive)
CCOC(=O)C(NC(=O)NCc1ccc(F)cc1)C(F)(F)F (configuration not stated) | > 100 µM (inactive) | > 100 µM (inactive) | – | > 100 µM (inactive) | > 100 µM (inactive) | – | – | > 100 µM (inactive) | – | – | > 100 µM (inactive) | – | > 100 µM (inactive) | > 100 µM (inactive) | > 100 µM (inactive) | > 100 µM (inactive) | > 100 µM (inactive) | > 100 µM (inactive) | > 100 µM (inactive)
COc1ccc(/C=N/NC(=O)CSc2nc(-c3ccccc3)c(-c3ccccc3)[nH]2)cc1OC | 28.8 µM (inactive) | – | 17.2 µM (inactive) | 20.5 µM (inactive) | 17.7 µM (inactive) | 19.5 µM (inactive) | 30.8 µM (inactive) | 30.3 µM (inactive) | 28.6 µM (inactive) | 17.1 µM (inactive) | 50 µM (inactive) | 24.2 µM (inactive) | 26.4 µM (inactive) | 30.1 µM (inactive) | 29.9 µM (inactive) | 35.4 µM (inactive) | 25.6 µM (inactive) | 17.5 µM (inactive) | 20.1 µM (inactive)
COC(=O)CSc1nnc(-c2ccccc2)[nH]1 | > 100 µM (inactive) | > 100 µM (inactive) | > 100 µM (inactive) | – | > 100 µM (inactive) | > 100 µM (inactive) | > 100 µM (inactive) | > 100 µM (inactive) | > 100 µM (inactive) | > 100 µM (inactive) | > 100 µM (inactive) | > 100 µM (inactive) | > 100 µM (inactive) | > 100 µM (inactive) | > 100 µM (inactive) | > 100 µM (inactive) | > 100 µM (inactive) | > 100 µM (inactive) | –
COc1ccc(C2S/C(=C\c3ccccc3O)C(=O)N2NC(=O)Cc2ccccc2)cc1 (configuration not stated) | > 100 µM (inactive) | 68.5 µM (inactive) | > 100 µM (inactive) | > 100 µM (inactive) | > 100 µM (inactive) | > 100 µM (inactive) | > 100 µM (inactive) | > 100 µM (inactive) | > 100 µM (inactive) | – | > 100 µM (inactive) | > 100 µM (inactive) | > 100 µM (inactive) | > 100 µM (inactive) | > 100 µM (inactive) | > 100 µM (inactive) | > 100 µM (inactive) | > 100 µM (inactive) | 61.7 µM (inactive)
COc1ccc(C2NC3=C(CCCC3)N2)cc1 | > 100 µM (inactive) | – | 54.3 µM (inactive) | 56.4 µM (inactive) | 37.4 µM (inactive) | 40.4 µM (inactive) | > 100 µM (inactive) | 67 µM (inactive) | 45 µM (inactive) | 71 µM (inactive) | > 100 µM (inactive) | 78 µM (inactive) | 42.6 µM (inactive) | > 100 µM (inactive) | – | > 100 µM (inactive) | 53.8 µM (inactive) | 27.2 µM (inactive) | –
O=C1C(=O)N(c2ccc(Cl)cc2)C(=O)/C(=N/c2cccc3c(=O)[nH][nH]c(=O)c23)C1c1nc2ccccc2o1 (configuration not stated) | > 100 µM (inactive) | > 100 µM (inactive) | > 100 µM (inactive) | > 100 µM (inactive) | > 100 µM (inactive) | > 100 µM (inactive) | > 100 µM (inactive) | > 100 µM (inactive) | > 100 µM (inactive) | > 100 µM (inactive) | > 100 µM (inactive) | > 100 µM (inactive) | > 100 µM (inactive) | > 100 µM (inactive) | > 100 µM (inactive) | > 100 µM (inactive) | > 100 µM (inactive) | > 100 µM (inactive) | –
O=C1C(Cl)=C(N2CCSCC2)C(=O)c2c(O)ccc(O)c21 | 0.776 µM (active) | – | 0.38 µM (active) | 0.186 µM (active) | 0.33 µM (active) | 0.382 µM (active) | 0.347 µM (active) | 0.273 µM (active) | 0.494 µM (active) | – | 0.514 µM (active) | 0.1 µM (active) | 0.581 µM (active) | – | 0.258 µM (active) | 0.465 µM (active) | – | 0.451 µM (active) | 0.243 µM (active)
CC1OC(OCC2OC(Oc3c(-c4ccc(O)cc4)oc4cc(O)cc(O)c4c3=O)C(OC3OCC(O)(CO)C3O)C(O)C2O)C(O)C(O)C1O (configuration not stated) | > 100 µM (inactive) | 29.4 µM (inactive) | > 100 µM (inactive) | 51.9 µM (inactive) | > 100 µM (inactive) | > 100 µM (inactive) | > 100 µM (inactive) | > 100 µM (inactive) | 66.4 µM (inactive) | > 100 µM (inactive) | > 100 µM (inactive) | > 100 µM (inactive) | > 100 µM (inactive) | > 100 µM (inactive) | 79.1 µM (inactive) | > 100 µM (inactive) | 44.6 µM (inactive) | > 100 µM (inactive) | –
CCOC(=O)c1oc2c(OC)ccc3c2c1CCC3 | > 100 µM (inactive) | 66.8 µM (inactive) | > 100 µM (inactive) | > 100 µM (inactive) | > 100 µM (inactive) | > 100 µM (inactive) | – | 96.4 µM (inactive) | > 100 µM (inactive) | > 100 µM (inactive) | > 100 µM (inactive) | > 100 µM (inactive) | > 100 µM (inactive) | > 100 µM (inactive) | > 100 µM (inactive) | > 100 µM (inactive) | > 100 µM (inactive) | > 100 µM (inactive) | > 100 µM (inactive)
CCOC(=O)C1S/C(=N\c2ccccc2)N=C1C (configuration not stated) | > 100 µM (inactive) | 40.7 µM (inactive) | > 100 µM (inactive) | 47.3 µM (inactive) | – | > 100 µM (inactive) | 74 µM (inactive) | 67.3 µM (inactive) | 79.1 µM (inactive) | 97.1 µM (inactive) | 60.1 µM (inactive) | > 100 µM (inactive) | – | > 100 µM (inactive) | > 100 µM (inactive) | > 100 µM (inactive) | > 100 µM (inactive) | – | > 100 µM (inactive)
C[n+]1c(-c2ccc(/C=N/Nc3ccnc(N/N=C/c4ccc(-c5cn6ccccc6[n+]5C)cc4)n3)cc2)cn2ccccc21 | 39.3 µM (inactive) | – | 32.6 µM (inactive) | – | 31.2 µM (inactive) | – | – | – | 31.3 µM (inactive) | – | 88.9 µM (inactive) | 17.9 µM (inactive) | > 100 µM (inactive) | > 100 µM (inactive) | 71.1 µM (inactive) | 41.8 µM (inactive) | – | 56.4 µM (inactive) | –
